Data: ChEMBL document CHEMBL1201862, “PubChem BioAssay data set” (2004)
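Five concentrations, 48 hours, 96-well plates. Here, GI50 denotes the concentration required for 50% inhibition of growth.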 The source made the active and inactive calls. Cut-off read from the data, not from the text of the source: active = GI50 up to about 1.1 µM and inactive = higher.

Columns and labels:
Experiment in all cases: DTP human tumour cell line panel, 48 h
EKVX = test system: EKVX
HL-60 = test system: HL-60
HOP-92 = test system: HOP-92
KM12 = test system: KM12
LOX IMVI = test system: LOX IMVI
M14 = test system: M14
MCF7 = test system: MCF7
MDA-MB-231 = test system: MDA-MB-231
MDA-MB-435 = test system: MDA-MB-435
NCI-H226 = test system: NCI-H226
NCI-H23 = test system: NCI-H23
NCI-H522 = test system: NCI-H522
OVCAR-3 = test system: OVCAR-3
OVCAR-5 = test system: OVCAR-5
SK-MEL-5 = test system: SK-MEL-5
SN12C = test system: SN12C
T47D = test system: T47D
U-251 = test system: U-251
NCI-H460 = test system: NCI-H460
SR = test system: SR

## O=C(NNCC(O)COc1ccccc1)c1ccccc1 (stereo not given)
EKVX
  GI50: > 100 µM (inactive)
HL-60
  GI50: > 100 µM (inactive)
HOP-92
  GI50: > 100 µM (inactive)
KM12
  GI50: > 100 µM (inactive)
LOX IMVI
  GI50: > 100 µM (inactive)
M14
  GI50: > 100 µM (inactive)
MCF7
  GI50: > 100 µM (inactive)
MDA-MB-231
  GI50: > 100 µM (inactive)
MDA-MB-435
  GI50: > 100 µM (inactive)
NCI-H226
  GI50: > 100 µM (inactive)
NCI-H23
  GI50: > 100 µM (inactive)
NCI-H522
  GI50: > 100 µM (inactive)
OVCAR-3
  GI50: > 100 µM (inactive)
OVCAR-5
  GI50: > 100 µM (inactive)
SK-MEL-5
  GI50: 42 µM (inactive)
SN12C
  GI50: > 100 µM (inactive)
T47D
  GI50: > 100 µM (inactive)
U-251
  GI50: > 100 µM (inactive)

## COc1ccc(/C=C/NC=O)cc1
EKVX
  GI50: > 100 µM (inactive)
HL-60
  GI50: > 100 µM (inactive)
KM12
  GI50: > 100 µM (inactive)
LOX IMVI
  GI50: > 100 µM (inactive)
M14
  GI50: > 100 µM (inactive)
MCF7
  GI50: > 100 µM (inactive)
MDA-MB-231
  GI50: 89.5 µM (inactive)
MDA-MB-435
  GI50: > 100 µM (inactive)
NCI-H226
  GI50: > 100 µM (inactive)
NCI-H23
  GI50: > 100 µM (inactive)
NCI-H460
  GI50: > 100 µM (inactive)
NCI-H522
  GI50: > 100 µM (inactive)
OVCAR-3
  GI50: > 100 µM (inactive)
OVCAR-5
  GI50: > 100 µM (inactive)
SK-MEL-5
  GI50: > 100 µM (inactive)
SN12C
  GI50: > 100 µM (inactive)
SR
  GI50: > 100 µM (inactive)
T47D
  GI50: > 100 µM (inactive)
U-251
  GI50: > 100 µM (inactive)

## COC(=O)c1ccccc1C#CCCCOS(C)(=O)=O
EKVX
  GI50: > 10 µM (inactive)
HL-60
  GI50: > 10 µM (inactive)
KM12
  GI50: > 10 µM (inactive)
LOX IMVI
  GI50: > 10 µM (inactive)
M14
  GI50: > 10 µM (inactive)
MCF7
  GI50: > 10 µM (inactive)
MDA-MB-231
  GI50: > 10 µM (inactive)
MDA-MB-435
  GI50: > 10 µM (inactive)
NCI-H226
  GI50: > 10 µM (inactive)
NCI-H23
  GI50: > 10 µM (inactive)
NCI-H460
  GI50: > 10 µM (inactive)
OVCAR-3
  GI50: > 10 µM (inactive)
OVCAR-5
  GI50: > 10 µM (inactive)
SK-MEL-5
  GI50: > 10 µM (inactive)
SN12C
  GI50: > 10 µM (inactive)
SR
  GI50: > 10 µM (inactive)
T47D
  GI50: > 10 µM (inactive)
U-251
  GI50: > 10 µM (inactive)

## O=C1c2ccccc2CC12Cc1ccc3c(c1C2=O)CCCC3 (stereo not given)
EKVX
  GI50: > 100 µM (inactive)
HL-60
  GI50: 16.8 µM (inactive)
KM12
  GI50: 41.4 µM (inactive)
LOX IMVI
  GI50: 19.9 µM (inactive)
M14
  GI50: 8.61 µM (inactive)
MCF7
  GI50: > 100 µM (inactive)
MDA-MB-231
  GI50: 0.948 µM (active)
MDA-MB-435
  GI50: 21.7 µM (inactive)
NCI-H226
  GI50: 24 µM (inactive)
NCI-H460
  GI50: 3.91 µM (inactive)
NCI-H522
  GI50: 5.21 µM (inactive)
OVCAR-3
  GI50: 12.6 µM (inactive)
OVCAR-5
  GI50: > 100 µM (inactive)
SK-MEL-5
  GI50: 6.19 µM (inactive)
SN12C
  GI50: 14.1 µM (inactive)
SR
  GI50: 2.87 µM (inactive)
T47D
  GI50: 1.39 µM (inactive)
U-251
  GI50: 35.2 µM (inactive)

## COc1cc(N(CCC#N)CCC#N)ccc1C(/N=N/c1cccc([N+](=O)[O-])c1)=N\NC(=O)c1ccc(C)cc1
EKVX
  GI50: 10.4 µM (inactive)
HL-60
  GI50: 10.8 µM (inactive)
HOP-92
  GI50: 33.9 µM (inactive)
KM12
  GI50: > 100 µM (inactive)
LOX IMVI
  GI50: > 100 µM (inactive)
M14
  GI50: > 100 µM (inactive)
MCF7
  GI50: 45 µM (inactive)
MDA-MB-231
  GI50: > 100 µM (inactive)
MDA-MB-435
  GI50: > 100 µM (inactive)
NCI-H226
  GI50: > 100 µM (inactive)
NCI-H23
  GI50: 37.1 µM (inactive)
NCI-H460
  GI50: 24.3 µM (inactive)
NCI-H522
  GI50: 26.5 µM (inactive)
OVCAR-3
  GI50: 96.8 µM (inactive)
OVCAR-5
  GI50: > 100 µM (inactive)
SK-MEL-5
  GI50: 59 µM (inactive)
SN12C
  GI50: > 100 µM (inactive)
T47D
  GI50: 27.8 µM (inactive)
U-251
  GI50: > 100 µM (inactive)

## Cc1cn(C2CC(N=[N+]=[N-])C(CO[Si](C)(C)C(C)(C)C)O2)c(=O)[nH]c1=O (stereo not given)
EKVX
  GI50: 23.5 µM (inactive)
HL-60
  GI50: 28.7 µM (inactive)
KM12
  GI50: 15.8 µM (inactive)
LOX IMVI
  GI50: 16.9 µM (inactive)
M14
  GI50: 21.4 µM (inactive)
MCF7
  GI50: 18 µM (inactive)
MDA-MB-231
  GI50: 13.6 µM (inactive)
MDA-MB-435
  GI50: 18 µM (inactive)
NCI-H226
  GI50: 14.9 µM (inactive)
NCI-H23
  GI50: 21.1 µM (inactive)
NCI-H522
  GI50: 16.8 µM (inactive)
OVCAR-3
  GI50: 16.9 µM (inactive)
OVCAR-5
  GI50: 23 µM (inactive)
SK-MEL-5
  GI50: 18.5 µM (inactive)
SN12C
  GI50: 15.6 µM (inactive)
SR
  GI50: 23.3 µM (inactive)
T47D
  GI50: 29.4 µM (inactive)
U-251
  GI50: 18.1 µM (inactive)
